Data as given in ChEMBL document CHEMBL1143456, “Identification of a potent and selective 5-HT1B receptor antagonist” (Bioorg Med Chem Lett, 2005).

Tests used:
[1] = molecular target: T1, 5-hydroxytryptamine receptor 1B (Homo sapiens, UniProt P28222); assay: Intrinsic activity for human 5-hydroxytryptamine 1B receptor
[2] = molecular target: T1, 5-hydroxytryptamine receptor 1B; assay: Binding affinity against cloned human 5-hydroxytryptamine 1B receptor
[3] = molecular target: T2, 5-hydroxytryptamine receptor 1D (Homo sapiens, UniProt P28221); assay: Binding affinity against cloned human 5-hydroxytryptamine 1D receptor
[4] = molecular target: T3, 5-hydroxytryptamine receptor 1A (Homo sapiens, UniProt P08908); assay: Binding affinity against cloned human 5-hydroxytryptamine 1A receptor
T3 sequence (P08908 whole entry): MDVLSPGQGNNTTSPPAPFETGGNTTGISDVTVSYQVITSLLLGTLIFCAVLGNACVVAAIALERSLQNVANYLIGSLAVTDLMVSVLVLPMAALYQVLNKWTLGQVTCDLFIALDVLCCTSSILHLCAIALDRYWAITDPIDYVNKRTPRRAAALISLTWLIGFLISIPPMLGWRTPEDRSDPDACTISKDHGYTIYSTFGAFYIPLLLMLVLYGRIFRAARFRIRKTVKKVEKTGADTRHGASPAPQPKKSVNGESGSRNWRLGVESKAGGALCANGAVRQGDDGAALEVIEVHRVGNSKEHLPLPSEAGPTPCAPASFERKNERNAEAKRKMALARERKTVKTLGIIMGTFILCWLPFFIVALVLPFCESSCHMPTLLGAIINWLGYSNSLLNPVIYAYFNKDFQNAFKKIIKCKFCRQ

[5] = Intrinsic clearance from human liver microsomes; assay type: ADME, Microsome
Homo sapiens = species: Homo sapiens; assay: Selectivity towards human 5-hydroxytryptamine 1B receptor to that of 5-hydroxytryptamine 1A receptor
Rattus norvegicus = species: Rattus norvegicus; assay: Intrinsic clearance from rat liver microsomes; assay type: ADME, Microsome
[6] = molecular target: Serotonin 1 receptors; 5-HT1B & 5-HT1D (Homo sapiens) (UniProt P28222+P28221); assay: Selectivity towards human 5-hydroxytryptamine 1B receptor to that of 5-hydroxytryptamine 1D receptor; assay type: protein assay
[7] = molecular target: T2, 5-hydroxytryptamine receptor 1D; assay: Intrinsic activity for human 5-hydroxytryptamine 1D receptor

T1 sequence (P28222 whole entry): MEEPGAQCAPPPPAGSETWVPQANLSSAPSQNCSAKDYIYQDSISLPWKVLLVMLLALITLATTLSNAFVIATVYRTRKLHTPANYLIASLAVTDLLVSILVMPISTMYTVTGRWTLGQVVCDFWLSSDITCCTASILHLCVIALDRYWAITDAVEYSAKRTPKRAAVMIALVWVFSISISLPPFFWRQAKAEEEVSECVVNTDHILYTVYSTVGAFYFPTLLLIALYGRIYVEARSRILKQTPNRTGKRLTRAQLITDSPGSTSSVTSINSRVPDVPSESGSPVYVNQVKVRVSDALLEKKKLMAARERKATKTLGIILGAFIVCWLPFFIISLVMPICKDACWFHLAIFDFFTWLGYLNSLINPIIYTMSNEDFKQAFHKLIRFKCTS
T2 sequence (P28221 whole entry): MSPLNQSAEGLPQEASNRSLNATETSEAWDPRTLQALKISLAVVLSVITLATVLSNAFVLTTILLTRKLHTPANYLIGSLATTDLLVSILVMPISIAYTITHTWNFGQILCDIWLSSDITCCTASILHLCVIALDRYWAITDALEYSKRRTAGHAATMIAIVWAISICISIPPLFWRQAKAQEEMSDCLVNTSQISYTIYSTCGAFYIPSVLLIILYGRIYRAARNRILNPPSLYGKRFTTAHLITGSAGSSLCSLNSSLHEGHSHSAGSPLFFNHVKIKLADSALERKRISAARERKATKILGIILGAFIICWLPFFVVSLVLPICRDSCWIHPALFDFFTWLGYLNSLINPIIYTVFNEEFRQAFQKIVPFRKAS

Row | Intrinsic activity [1] | Ki [2] | Ki [3] | Ki [4] | Intrinsic clearance [5] | Selectivity (Homo sapiens) | Intrinsic clearance (Rattus norvegicus) | Selectivity [6] | Intrinsic activity [7] | Structure (SMILES)
1 | 0 | 0.00316 µM | 0.251 µM | – | – | – | – | – | – | COc1cc2c(cc1N1C[C@@H](C)N[C@@H](C)C1)N(C(=O)c1ccc(-c3ccc(-c4noc(C)n4)cc3C)cc1)CC2
2 | 0.1 | 0.00794 µM | 0.2 µM | – | – | – | – | – | – | COc1cc2c(cc1N1C[C@@H](C)N(C)[C@@H](C)C1)N(C(=O)Nc1cccc(Cl)c1F)CC2
3 | 0.3 | 0.00316 µM | 0.1 µM | 0.501 µM | 34 mL/min/g | 160 | 46 mL/min/g | 30 | – | COc1cc2c(cc1N1C[C@@H](C)N(C)[C@@H](C)C1)N(C(=O)c1ccc(-c3cccc(C)n3)c3ccccc13)CC2
4 | 0 | 0.000631 µM | 0.0158 µM | – | – | – | – | – | – | COc1cc2c(cc1N1C[C@@H](C)N(C)[C@@H](C)C1)N(C(=O)c1ccc(-c3ccccc3C)cc1)CC2
5 | – | 0.00501 µM | 0.251 µM | – | – | – | – | – | – | COc1cc2c(cc1N1C[C@@H](C)N[C@@H](C)C1)N(C(=O)c1ccc(-c3ccc(-c4ncccn4)cc3C)cc1)CC2
6 | 0.9 | 0.002 µM | 0.0251 µM | 0.0126 µM | – | 6 | – | 12 | 0.9 | COc1cc2c(cc1N1CCN(C)CC1)N(C(=O)c1ccc(-c3cccc(C)n3)c3ccccc13)CC2
7 | – | 0.0501 µM | 0.126 µM | 1 µM | 14 mL/min/g | 21 | 12 mL/min/g | 2.8 | – | COc1cc2c(cc1N1C[C@@H](C)N[C@@H](C)C1)N(C(=O)c1ccc(-c3cccc(C)n3)c3ccccc13)CC2
8 | 0.1 | 0.0158 µM | 0.251 µM | 2 µM | – | 125 | – | 15 | 0.2 | COc1cc2c(cc1N1C[C@@H](C)N(C)[C@@H](C)C1)N(C(=O)Cc1cccc([N+](=O)[O-])c1)CC2
9 | 0 | 0.00251 µM | 0.0501 µM | – | – | – | – | – | – | COc1cc2c(cc1N1C[C@@H](C)N(C)[C@@H](C)C1)N(C(=O)Nc1cccc(C(F)(F)F)c1Cl)CC2
10 | 0.1 | 0.00316 µM | 0.2 µM | – | – | – | – | – | – | COc1cc2c(cc1N1C[C@@H](C)N(C)[C@@H](C)C1)N(C(=O)Cc1cccc(F)c1C(F)(F)F)CC2
11 | – | 0.00398 µM | 0.126 µM | 0.501 µM | 47 mL/min/g | 110 | 45 mL/min/g | 28 | – | CCN1[C@H](C)CN(c2cc3c(cc2OC)CCN3C(=O)c2ccc(-c3cccc(C)n3)c3ccccc23)C[C@@H]1C
12 | – | 0.00316 µM | 0.398 µM | – | – | – | – | – | – | COc1cc2c(cc1N1C[C@@H](C)N[C@@H](C)C1)N(C(=O)c1ccc(-c3ccc(C(C)=O)cc3C)cc1)CC2
13 | 0.1 | 0.00158 µM | 0.126 µM | – | – | – | – | – | – | COc1cc2c(cc1N1C[C@@H](C)N(C)[C@@H](C)C1)N(C(=O)Cc1cccc(C(F)(F)F)c1F)CC2
14 | – | 0.00794 µM | 0.0316 µM | 0.158 µM | – | 20 | – | 4 | – | COc1cc2c(cc1N1CCN(C)CC1)N(C(=O)Cc1cccc([N+](=O)[O-])c1)CC2
15 | – | 0.00501 µM | 0.0158 µM | – | – | – | – | – | – | COc1cc2c(cc1N1C[C@@H](C)N(C)[C@@H](C)C1)N(C(=O)c1ccc(-c3ccc(-c4noc(C)n4)cc3C)cc1)CC2
16 | 0.1 | 0.00794 µM | 0.0794 µM | – | 3 mL/min/g | 200 | 3 mL/min/g | 10 | 0.1 | COc1cc2c(cc1N1C[C@@H](C)N(C)[C@@H](C)C1)N(C(=O)Nc1cccc(Cl)c1Cl)CC2
17 | – | 0.0126 µM | 0.251 µM | – | – | – | – | – | – | COc1cc2c(cc1N1C[C@@H](C)N(C)[C@@H](C)C1)N(C(=O)c1cccc(Cl)c1Cl)CC2
18 | 0 | 0.00501 µM | 0.398 µM | – | – | – | – | – | – | COc1cc2c(cc1N1C[C@@H](C)N[C@@H](C)C1)N(C(=O)c1ccc(-c3ccc(N4CCCC4=O)nc3C)cc1)CC2
19 | 0 | 0.00794 µM | 0.501 µM | – | – | – | – | – | – | COc1cc2c(cc1N1C[C@@H](C)N[C@@H](C)C1)N(C(=O)c1ccc(-c3cc(C)ncc3C)cc1)CC2
20 | – | 0.02 µM | 0.251 µM | – | – | – | – | – | – | COc1cc2c(cc1N1C[C@@H](C)N(C)[C@@H](C)C1)N(C(=O)c1cccc(Cl)c1)CC2
21 | 0.1 | 0.002 µM | 0.1 µM | – | – | – | – | – | – | COc1cc2c(cc1N1C[C@@H](C)N(C)[C@@H](C)C1)N(C(=O)Cc1cccc(Cl)c1F)CC2
22 | 0.6 | 0.00398 µM | 0.0126 µM | 0.0501 µM | – | 13 | – | 3 | 0.7 | COc1cc2c(cc1N1CCN(C)CC1)N(C(=O)Nc1cccc(Cl)c1Cl)CC2
23 | 0 | 0.00398 µM | 0.158 µM | – | – | – | – | – | – | COc1cc2c(cc1N1C[C@@H](C)N(C)[C@@H](C)C1)N(C(=O)Nc1cccc(C(F)(F)F)c1F)CC2
24 | – | 0.0316 µM | 0.158 µM | 0.0794 µM | – | 2 | – | 4.7 | – | CCCN1[C@H](C)CN(c2cc3c(cc2OC)CCN3C(=O)c2ccc(-c3cccc(C)n3)c3ccccc23)C[C@@H]1C

Row | Structure (SMILES) | Intrinsic activity [1] | Ki [2] | Ki [3] | Ki [4] | Intrinsic clearance [5] | Selectivity (Homo sapiens) | Intrinsic clearance (Rattus norvegicus) | Selectivity [6] | Intrinsic activity [7]
25 | CN1CCN(c2cc3c(cc2Cl)CCN3C(=O)Nc2ccc(-c3ccncc3)c3ccccc23)CC1 | – | 0.00398 µM | 0.001 µM | 0.00398 µM | – | 1 | – | 0.25 | –
26 | COc1cc2c(cc1N1C[C@@H](C)N(C)[C@@H](C)C1)N(C(=O)Oc1cccc(C(F)(F)F)c1F)CC2 | 0.1 | 0.00251 µM | 0.0316 µM | – | – | – | – | – | –
27 | COc1cc2c(cc1N1C[C@@H](C)N(C)[C@@H](C)C1)N(C(=O)Oc1cccc(C(F)(F)F)c1Cl)CC2 | 0.15 | 0.00251 µM | 0.0251 µM | – | – | – | – | – | –
